This note sets out measurements from US20180256570A1, “TOPICAL FORMULATIONS” (IGNYTA, INC., priority 2015, published 2018).

The nature of data set [1]: Solubility in common topical excipients and solvent mixtures. Type of data set: physicochemical.
The nature of data set [2]: Solubility in IPA/DMSO and IPA/water/DMSO solutions. The format is physicochemical.
The nature of data set [3]: Stress testing with pure excipients (adduct formation). Type of data set: physicochemical. The protocol: Stress testing with pure excipients was also conducted.
Data set [4] is described as follows: Accumulation in epidermis and dermis of human skin after permeability assay. The format is in vitro ADME. From the text:
All chambers were covered to minimize evaporation.
The concentration of the test compounds is expressed as the amount (μg) normalized by the tissue weight of each layer (g).

Data set [5] can be described thus: Human cadaver skin permeability assay, Franz diffusion cells (flux, Papp).
Protocol: Static, vertical glass Franz diffusion cells were used for the permeability assay.
The dosing solution with control compounds (atenolol and testosterone, 100 μM each) was prepared in PBS buffer at pH 7.4 immediately prior to the start of the permeability experiments. The skin was kept frozen at −80° C. until the time of the study. The skin was thawed at room temperature and cut to appropriate size (˜2×2 cm). The thickness of each piece was measured and they were grouped based on thickness to ensure that the average thickness was similar across groups. Tissue was mounted in the Franz cell diffusion chamber and clamped between the donor and receiver chambers. The exposed surface area of the Franz cell diffusion chamber was 1.77 cm^2. The receiver compartment was filled with 8 mL PBS at pH 7.4 with 1% Oleth 20 for all test groups, or PBS at pH 7.4 for the control group. The reservoir also contained a magnetic stir bar, stirring at 400 RPM to ensure homogeneity of the reservoir contents. […]
Each formulated test compound (35.4 μL by volume) was dispensed into the donor chamber using the reverse pipetting technique, after warming the cream in a water bath at 37° C. […] Each formulation was also analyzed to verify the concentration of the test compound. […]

For `CN(C(=O)c1ccc(F)cc1C(F)(F)F)C1CCN(c2nnc(-c3ccnn3C)c3ccccc23)CC1` [4-fluoro-N-methyl-N-(1-(4-(1-methyl-1H-pyrazol-5-yl)phthalazin-1-yl)piperidin-4-yl)-2-(trifluoromethyl)benzamide], the “Solubility in cosolvent, aqueous and lipophilic mixtures” value in data set [1] (Table 2 (not given)) was “solubility is highest in ethanol/water mixtures”. Further, the Solubility in data set [1] (solvent DMSO) was 27.65 mg/g; in data set [1] (solvent EtOH), 13.66 mg/g; in data set [1] (solvent EtOH-Water (1:1) v/v), 2.51 mg/g; in data set [1] (solvent EtOH-Water (3:1) v/v), 18.76 mg/g; in data set [1] (solvent IPA-Water (3:1) v/v), 18.73 mg/g; in data set [1] (solvent Isopropyl alcohol), 5.15 mg/g. Further, in data set [1] (solvent NMP), the Solubility is 107.02 mg/g. Also, the “solubility in IPA/DMSO solutions” value in data set [2] (above 20% DMSO, increasing DMSO, absence of water) was “increased”. In addition, the “solubility in IPA/water/DMSO solutions” value in data set [2] (as percentage of water increased (5%, 10%, 20% or 30% water)) is recorded as “less solubility”. Also, the adduct formation entry in data set [3] (excipients containing unhindered hydroxyl groups (ethanol, benzyl alcohol, Transcutol)) is given as “Adducts were observed”; in data set [3] (isopropyl alcohol), “no adduct was observed”.
On to `Cc1c(C(=O)Nc2ccc(N3C[C@@H](C)O[C@@H](C)C3)nc2)cccc1-c1ccc(OC(F)(F)F)cc1` [LDE225], for which, in data set [4], the “accumulation in dermis, comparison” value is reported as “significantly less” and the “accumulation in epidermis, comparison” value was “significantly less”. The “flux, comparison between formulations” value in data set [5] (human cadaver skin) was “tended to be lower than that of Formulation A2”.
As to `C[C@]12CC[C@H]3[C@@H](CCC4=CC(=O)CC[C@@]43C)[C@@H]1CC[C@@H]2O` [testosterone], the “ratio of testosterone to atenolol Papp” value in data set [5] (control compounds, 100 μM each in PBS pH 7.4) was “greater than 2”.
